Key:
Format in all cases: cell-based, human
[1] = test system: HCT-116 cells; experiment: Cellular platinum accumulation/distribution by ICP-MS; conditions: for Total cellular platinum accumulation: HCT-116, 24 h exposure, 0.35 µM
Description: (§1) Cellular concentrations of platinum were determined by inductively coupled plasma mass spectrometry (ICP-MS) after 24 h of exposure to the complexes at the concentration of 0.35 µM.
(§2) Cellular uptake studies were also carried out to measure the accumulation of platinum species in cytosol and nucleus. […] The platinum levels in each pool were measured by ICP-MS. The extent of accumulation of both OA conjugated Pt(IV) prodrugs into the cytosol and nucleus fractions was markedly higher than that of cisplatin or Pt(IV)diAc.
(§3) The cells were seeded in 150 cm^2 culture flasks at a density 1 × 10^7 cells/flask (67 000 cells/cm^2). After 48-h incubation, the cells were treated with the compounds (0.35 μM) for 24 h. The attached cells were washed twice with PBS (4 °C). Seventy-five percent of cells were used for analysis of platinum bound to DNA, remaining 25% were used for estimations of cellular accumulation of platinum. Cell pellets were digested by a high-pressure microwave digestion system (MARS5, CEM) with HCl to give a fully homogenized solution, and final platinum content was determined by ICP-MS. The analysis with the aid of ICP-MS was performed using Agilent 7500 (Agilent, Japan) or Thermo Optek X Series.
(§4) A2780 cells were seeded in 100 mm tissue culture dishes (3 × 10^6 cells) and grown for 48 h to 80–90% confluence. Cells were harvested after 24 h of treatment. Concretely, the dishes were washed two times with ice-cold PBS and the cells scraped into tubes and centrifuged for 10 min at 0 °C (200 g). The pellets were resuspended in the lysis buffer [Tris·HCl (10 mM, pH 8.0), KCl (60 mM), EDTA (1.2 mM), DTT (1 mM), phenylmethanesulfonyl fluoride (PMSF, 0.1 mM), NP-40 (0.04%)] for 10 min on ice and centrifuged for 4 min at 0 °C (800 g). Cytosolic fraction was separated for platinum ICP-MS analysis, and protein concentration was determined by Bradford assay. The pellets were rinsed with the above lysis buffer without PMSF and NP-40 and centrifuged for another 4 min at 0 °C (300 g). The pellets were resuspended in 50 µL nuclear extraction buffer [Tris·HCl (20 mM, pH 8.0), NaCl (420 mM), MgCl2 (0.7 mM), EDTA (0.25 mM), glycerol (25%)] and incubated for 30 min at 4 °C, continuously mixed on end-over-end roller, and then centrifuged for 15 min at 0 °C (13000 g). Protein concentration in nuclear extracts was determined by the Bradford assay, and stored at −80 °C until analysis.

[2] = test system: A2780 cells; experiment: as above; conditions: for Platinum in cytosol / Platinum in nucleus: A2780, 24 h; for Platinum in cytosol / Platinum in nucleus / Total cellular platinum accumulation: 0.35 µM; for Total cellular platinum accumulation: A2780, 24 h exposure
Description: as §1, §2, §3, §4

[3] = test system: A2780 cells; experiment: Pt accumulation in A2780 cells with and without serum, BSA or lipoproteins; conditions: A2780, 10 μM, 4 h
Description: Interactions with serum proteins
The trends observed in the results of the in vivo antitumor activity experiments, such as the tissue biodistribution (Fig. S2A), blood levels (Fig. S2B), and cellular accumulation (Table 2) of Pt(IV) complexes could be also related to their sequestration by plasma proteins, mainly by 8 human serum albumin . Thus, the accumulation experiments in cellulo were carried out employing A2780 cells without serum (and therefore without BSA) in the culture medium. As shown in Fig. S3, when passing from the treatment in complete medium (+FBS) to the […]
Supplementary Figure S3: Pt accumulation in A2780 cells treated with Pt(IV) prodrugs […]
treatment in complete medium (+FBS) and in serum-free medium (- FBS). Data are means of at least three replicates and were tested using the two sample t-test (***p<0.001). […]
medium supplemented with 10% FBS contains 30 µM BSA, which is known to transport octanoate9,10, and 300 μg mL-1 cholesterol in the most lipophilic component, i.e. lipoproteins11, which are known to transport lipophilic drugs12,13. To verify whether the accumulation of Pt(IV)diOA could be mainly affected by BSA or lipoproteins, the experiments were repeated in serum-free medium supplemented with BSA (-FBS, + BSA) or LPC, lipoprotein-rich cholesterol (-FBS + LPC), respectively (see experimental part). As […]
(1 picture or pasted object on this page, not shown here)
(control, -FBS), in serum-free medium supplemented with 30 µM BSA (-FBS, + BSA), with lipoproteins (-FBS + LPC), and in complete medium (+FBS). Data are means of at least three replicates and were tested using the two sample t-test (***p<0.001). […]
Co.) and transferred into a microwave Teflon vessel. Subsequently, samples were submitted to the standard procedure using a speed microwave. After cooling, each mineralized sample was analyzed for platinum by ICP-MS (ThermoOptek X Series 2). Instrumental settings were optimized to achieve maximum sensitivity for platinum. For quantitative determination, the most abundant isotopes of platinum and indium (used as internal standard) were measured at m/z 195 and 115, respectively.
Accumulation of platinum in tumor cells treated with Pt(IV) complexes and cisplatin (in cellulo experiments) in the absence of serum. A2780 cells were seeded in 10 mm Petri dishes and treated with the platinum complexes (10 μM) for 4 h in complete medium, i.e. + 10 % FBS (HyClone, GE Healthcare). At time zero, 100 μL of medium was taken out from each sample to check the extracellular Pt concentration. […]
The level of Pt found in cells after drug treatment and normalized 6 upon the cell number (cellular Pt accumulation) was expressed as ng Pt per 10 cells. […]

CC(=O)[O][Pt]([NH2])([NH2])([Cl])([Cl])[O]C(C)=O [Pt(IV)diAc, cis, cis, trans-[Pt(IV)(NH3)2Cl2(Ac)2]]
Total cellular platinum accumulation [1]: 0.19 ± 0.04 ng Pt/10^6 cells
Platinum in cytosol [2]: 3.0 ± 0.4 pg Pt/µg protein
Platinum in nucleus [2]: 3.0 ± 0.5 pg Pt/µg protein
Total cellular platinum accumulation [2]: 0.45 ± 0.09 ng Pt/10^6 cells

CCCC(CCC)C(=O)[O][Pt]([NH2])([NH2])([Cl])([Cl])[O]C(=O)C(CCC)CCC [Pt(IV)diVPA, cis, cis, trans-[Pt(IV)(NH3)2Cl2(VPA)2]]
Change of Pt accumulation from complete medium (+FBS) to serum-free medium (-FBS) [3]: no significant change

N.N.[Cl][Pt][Cl] [cisplatin, reference compound]
Total cellular platinum accumulation [1]: 0.9 ± 0.1 ng Pt/10^6 cells
Platinum in cytosol [2]: 5.5 ± 0.9 pg Pt/µg protein
Platinum in nucleus [2]: 3.0 ± 0.7 pg Pt/µg protein
Total cellular platinum accumulation [2]: 0.8 ± 0.2 ng Pt/10^6 cells

CCCCCCCC(=O)[O][Pt]([NH2])([NH2])([Cl])([Cl])[O]C(=O)CCCCCCC [Pt(IV)diOA, cis, cis, trans-[Pt(IV)(NH3)2Cl2(OA)2]]
Change of Pt accumulation from complete medium (+FBS) to serum-free medium (-FBS) [3]: 3 fold
Effect of BSA addition to serum-free medium on Pt accumulation ([3]; -FBS + BSA): negligible effect
Effect of LPC (lipoprotein-rich cholesterol) supplementation of serum-free medium on Pt accumulation ([3]; -FBS + LPC): decreased Pt accumulation
Total cellular platinum accumulation [1]: 29.2 ± 0.3 ng Pt/10^6 cells
Increase of cellular accumulation vs. cisplatin ([1]; HCT-116, Fig. 2B): 34 x
Increase of cellular accumulation vs. Pt(IV)diAc ([1]; HCT-116, Fig. 2D): 153 x
Platinum in cytosol [2]: 138 ± 12 pg Pt/µg protein
Platinum in nucleus [2]: 173 ± 15 pg Pt/µg protein
Total cellular platinum accumulation [2]: 12.9 ± 0.3 ng Pt/10^6 cells
Increase of cellular accumulation vs. cisplatin ([2]; A2780, Fig. 2A): 16 x
Increase of cellular accumulation vs. Pt(IV)diAc ([2]; A2780, Fig. 2C): 29 x
